According to US8772511B2, “Azabicyclic carbamates and their use as alpha-7 nicotinic acetylcholine receptor agonists” (Bayer Intellectual Property GmbH, priority 2002, dated 2014):
Where a name gives a salt, the structure may show the parent alone. Read-outs that look alike come from different tables or passages of the source.

Tests used:
α7 nAChR = α7 nAChR (Rattus norvegicus (Rat), UniProt Q05941); assay: Affinity for α7 nAChR by inhibition of [3H]-methyllycaconitine binding to rat brain membranes
α7 nAChR, sequence (Q05941 23-502 limits assumed): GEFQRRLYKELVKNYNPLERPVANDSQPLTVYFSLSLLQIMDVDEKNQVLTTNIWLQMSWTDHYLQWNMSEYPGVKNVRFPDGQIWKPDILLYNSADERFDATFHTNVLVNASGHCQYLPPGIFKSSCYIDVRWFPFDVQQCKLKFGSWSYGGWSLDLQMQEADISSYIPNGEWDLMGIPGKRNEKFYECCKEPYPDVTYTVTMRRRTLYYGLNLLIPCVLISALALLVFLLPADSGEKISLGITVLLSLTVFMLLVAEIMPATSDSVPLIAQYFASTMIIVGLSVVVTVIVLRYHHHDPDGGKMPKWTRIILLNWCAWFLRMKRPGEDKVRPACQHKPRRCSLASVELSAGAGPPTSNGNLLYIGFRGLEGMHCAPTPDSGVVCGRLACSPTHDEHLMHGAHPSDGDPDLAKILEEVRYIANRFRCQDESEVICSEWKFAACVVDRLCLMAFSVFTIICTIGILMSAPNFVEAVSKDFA
Experimental: 1. Determination of the Affinity of Test Substances for α7 nAChR by Inhibition of [^3H]-Methyllycaconitine Binding to Rat Brain Membranes
The [^3H]-methyllycaconitine binding assay is a modification of the method described by Davies et al. in Neuropharmacol. 1999, 38, 679-690.
Rat brain tissue (hippocampus or whole brain) is homogenized in aqueous homogenization buffer (10% w/v, 0.32 M sucrose, 1 mM EDTA, 0.1 mM phenylmethylsulfonyl fluoride (PMSF), 0.01% (w/v) NaN3, pH 7.4, 4° C.) at 600 rpm in a glass homogenizer. The homogenate is centrifuged (1000×g, 4° C., 10 min) and the supernatant is removed. The pellet is resuspended (20% w/v) and the suspension is centrifuged (1000×g, 4° C., 10 min). The two supernatants are combined and centrifuged (15 000×g, 4° C., 30 min). The pellet obtained in this way is referred to as the P2 fraction.
The P2 pellet is suspended in binding buffer (50 mM Tris-HCl, 1 mM MgCl2, 120 mM NaCl, 5 mM KCl, 2 mM CaCl2, pH 7.4), and the suspension is centrifuged (15 000×g, 4° C., 30 min), twice.
The residue is resuspended in binding buffer to a concentration of […] and incubated in a volume of 250 μl (amount of membrane protein 0.4 mg) in the presence of 2 nM [3H]-methyllyeaconitine, 0.1% (w/v) BSA (bovine serum albumin) and various concentrations of the test substance at 21° C. for 60 min.
Incubation is then carried out in the presence of 1 μM α-bungarotoxin or 100 μM nicotine or 10 μM MLA (methyllycaconitine). The incubation is stopped by adding 4 ml of PBS (20 mM Na2HPO4, 5 mM KH2PO4, 150 mM NaCl, pH 7.4, 4° C.) and filtering through type A/E glass fiber filters (Gelman Sciences) which have previously been placed in 0.3% (v/v) polyethyleneimine (PEI) for 3 h. The filters are washed twice with 4 ml of PBS (4° C.), and the bound radioactivity is determined by scintillation measurement. All the assays are carried out in triplicate. The dissociation constant Ki of the test substance was determined from the IC50 of the compounds (concentration of the test substance at which 50% of the ligand bound to the receptor is displaced), the dissociation constant KD and the concentration L of [^3H]-methyllycaconitine using the equation Ki=IC50/(1+L/KD).

[1] = biological target: recombinant human 5-HT3 receptor (Homo sapiens (Human), UniProt P46098); assay: Affinity for 5-HT3 receptors through inhibition of [3H]GR65630 binding
recombinant human 5-HT3 receptor, sequence (P46098 24-478): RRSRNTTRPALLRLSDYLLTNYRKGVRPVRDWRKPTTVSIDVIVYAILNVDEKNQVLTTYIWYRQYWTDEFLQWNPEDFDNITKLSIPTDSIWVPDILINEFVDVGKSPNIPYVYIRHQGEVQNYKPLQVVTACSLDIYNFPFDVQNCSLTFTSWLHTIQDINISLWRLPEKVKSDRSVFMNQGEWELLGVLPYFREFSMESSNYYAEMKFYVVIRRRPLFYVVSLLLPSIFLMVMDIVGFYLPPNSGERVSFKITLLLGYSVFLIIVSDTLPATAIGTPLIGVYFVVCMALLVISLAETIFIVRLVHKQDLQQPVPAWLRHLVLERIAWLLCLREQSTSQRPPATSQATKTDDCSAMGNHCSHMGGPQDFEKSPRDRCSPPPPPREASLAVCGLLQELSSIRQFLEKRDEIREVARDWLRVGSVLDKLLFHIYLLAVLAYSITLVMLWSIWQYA
Experimental: 2. Determination of the Affinity of Test Substances for 5-HT3 Receptors Through Inhibition of [^3H]GR65630 Binding
Membranes from HEK293 cells which express recombinant human 5-HT3 receptor (RB-HS3, Receptor Biology, Inc., MD, USA) are diluted in accordance with the manufacturer's instructions in incubation buffer (50 mM Iris base, pH 7.4, 5 mM MgCl2, 0.5 mM EDTA, 0.1% (w/v) ascorbic acid, 10 μM pargyline and incubated in a volume of 200 μl (amount of membrane protein 3 μg) in the presence of 0.5 nM of the selective 5-HT3 receptor radio ligand [^3H]-GR65630 (NET 1011, Du Pont) and various concentrations of the test substance at 21° C. for 60 min. The nonspecific binding is determined by incubation in the presence of 100 μM 5-HT (5-hydroxytryptamine). The incubation is stopped by filtering through type A/E glass fiber filters (Gelman Sciences) or GF/B filters (Whatman) which have previously been placed in 0.3% (v/v) polyethyleneimine (PEI) for at least 1 h. The filters are washed three times with 3 ml of washing buffer (50 mM Tris-HCl, pH 7.4; 4° C.), and the bound radioactivity is determined by scintillation measurement. All the assays are carried out in triplicate. The dissociation constant Ki of the test substance is determined from the IC50 of the compounds (concentration of the test substance at which 50% of the ligand bound to the receptor is displaced), the dissociation constant KD and the concentration L of [^3H]GR65630 (Ki=IC50/(1+L/KD)).

[2] = [3H]GR65630 displacement, membranes from HEK293 cells expressing human 5-HT3 receptor, read-out: Ki
[3] = [3H]-methyllycaconitine displacement, rat brain membranes, read-out: Ki

## O=C(Nc1ccccc1)Nc1cccc2cc(C(=O)N[C@H]3CN4CCC3CC4)sc12 [Example 21, 7-[(Anilinocarbonyl)amino]-N-[(3R)-1-azabicyclo[2.2.2]oct-3-yl]-1-benzothiophene-2-carboxamide hydrochloride]
α7 nAChR
  Ki: 0.015 µM
[1]; [2]
  Ki: 1.6 µM

## COc1cccc(NC(=O)Nc2ccc3cc(C(=O)N[C@H]4CN5CCC4CC5)sc3c2)c1 [Example 16, N-[(3R)-1-Azabicyclo[2.2.2]oct-3-yl]-6-[({[3-methoxyphenyl]amino}carbonyl)-amino]-1-benzothiophene-2-carboxamide hydrochloride]
α7 nAChR
  Ki: 0.0043 µM
[1]; [2]
  Ki: 2.1 µM

## COc1ccc(NC(=O)Nc2ccc3cc(C(=O)N[C@H]4CN5CCC4CC5)sc3c2)cc1 [Example 4, N-[(3R)-1-Azabicyclo[2.2.2]oct-3-yl]-6-({[(4-methoxyphenyl)amino]carbonyl}-amino)-1-benzothiophene-2-carboxamide hydrochloride]
α7 nAChR; [3]
  Ki: 0.0021 µM

## COc1ccc(NC(=O)Nc2ccc3cc(C(=O)N[C@H]4CN5CCC4CC5)oc3c2)cc1 [Example 22, N-[(3R)-1-Azabicyclo[2.2.2]oct-3-yl]-6-({[(4-methoxyphenyl)amino]carbonyl}-amino)-1-benzofuran-2-carboxamide hydrochloride]
α7 nAChR; [3]
  Ki: < 0.001 µM

## O=C(NCCc1ccccc1)Nc1ccc2cc(C(=O)N[C@H]3CN4CCC3CC4)sc2c1 [Example 5, N-[(3R)-1-Azabicyclo[2.2.2]oct-3-yl]-6-({[(2-phenylethyl)amino]carbonyl}amino)-1-benzothiophene-2-carboxamide hydrochloride]
α7 nAChR; [3]
  Ki: 0.022 µM
[1]
  Ki: 12 µM

## N#Cc1cccc(NC(=O)Nc2ccc3cc(C(=O)N[C@H]4CN5CCC4CC5)sc3c2)c1 [Example 6, N-[(3R)-1-Azabicyclo[2.2.2]oct-3-yl]-6-({[(3-cyanophenyl)amino]carbonyl}amino)-1-benzothiophene-2-carboxamide hydrochloride]
α7 nAChR
  Ki: 0.0079 µM
[1]; [2]
  Ki: 1.7 µM

## COc1cc(NC(=O)Nc2ccc3cc(C(=O)N[C@H]4CN5CCC4CC5)sc3c2)cc(OC)c1OC [Example 14, N-[(3R)-1-Azabicyclo[2.2.2]oct-3-yl]-6-({[(3,4,5-trimethoxyphenyl)amino]-carbonyl}amino)-1-benzothiophene-2-carboxamide hydrochloride]
[1]
  Ki: 6.9 µM

## O=C(Nc1ccc2cc(C(=O)N[C@H]3CN4CCC3CC4)sc2c1)Nc1c(F)cccc1F [Example 11, N-[(3R)-1-Azabicyclo[2.2.2]oct-3-yl]-6-({[(2,6-difluorophenyl)amino]carbonyl}-amino)-1-benzothiophene-2-carboxamide hydrochloride]
α7 nAChR
  Ki: 0.0004 µM
[1]; [2]
  Ki: 5.5 µM
